Test results taken from US10434100B2, “Protein phosphatase 2A inhibitors for treating myelodysplastic syndromes” (priority 2014, dated 2019).

What was measured:
non-del (5q) MDS = conditions: cited from earlier work
del(5q) MDS [1] = conditions: cited from earlier work
protein phosphatase 2A = protein phosphatase 2A (Homo sapiens, UniProt P67775); conditions: cited from earlier work
[2] = test system: Non-del(5q) patient BM MNCs; assay: Apoptosis in patient cells, non-del(5q); assay type: cell-based; conditions: FIG. 5
Namalwa cells [3] = assay: Apoptosis in cell lines (Namalwa), flow cytometry; assay type: cell-based; conditions: 10 μM, dissolved in MSG
Protocol: FIG. 3 is a bar graph showing percentage of Namalwa cells undergoing apoptosis after treatment with 0.1 μM, 1.0 μM or 10 μM LB-100 dissolved in DMSO (grey) or MSG (black) compared to control and vehicle.
FIGS. 4A to 4D are a series of flow cytometry plots showing percentage of Namalwa cells undergoing apoptosis after treatment with control (FIG. 4A), 0.1 μM (FIG. 4B), 1.0 μM (FIG. 4C), or 10 μM (FIG. 4D) LB-100.

[4] = test system: MDS that is resistant to lenalidomide; assay: Additional studies of LB-100 efficacy in lenalidomide-resistant MDS; assay type: in vivo; conditions: LB-100 or LB-100 in combination with lenalidomide
Protocol: (§1) Additional studies, similar to the aforementioned Phase I design, are conducted to evaluate the efficacy of LB-100, alone or in combination with lenalidomide, in patients with del(5q) MDS or non-del(5q) MDS.

HL60 cells = assay: MTT assay, proliferation of HL60 cells; assay type: cell-based; conditions: 72 hours, versus lenalidomide, significant difference at 1 μM (FIG. 7A)
Protocol: (§2) FIG. 7A is a graph showing proliferation of HL60 cells 72 hours after treatment with 0.001 μM, 0.01 μM, 0.1 μM, 1.0 μM, 10 μM, or 100 μM LB-100 (grey) or 0.001 μM, 0.01 μM, 0.1 μM, 1.0 μM, 10 μM, or 100 μM lenalidomide (black), compared to control or vehicle. FIGS. 7B to 7C are graphs showing proliferation of Namalwa cells 72 hours after treatment with 0.001 μM, 0.01 μM, 0.1 μM, 1.0 μM, 10 μM, or 100 μM LB-100 (♦), 0.001 μM, 0.01 μM, 0.1 μM, 1.0 μM, 10 μM, or 100 μM lenalidomide (▪), or 0.001 μM, 0.01 μM, 0.1 μM, 1.0 μM, 10 μM, or 100 μM, cantharidin (▴), compared to control or vehicle.
(§3) HL60 cells and U937 cells were compared (FIGS. 8A and 8B).

Namalwa cells [5] = assay: Cell cycle analysis of Namalwa cells treated with LB-100; assay type: cell-based
Protocol: FIG. 1 is a bar graph showing percent of Namalwa cells in G1 arrest 24 hours after treatment with 0.1 μM, 1.0 μM or 10 μM LB-100 dissolved in DMSO (grey) or MSG (black) compared to control and vehicle.
FIG. 2 is a bar graph showing percent of Namalwa cells in G1 arrest 24 hours after treatment with 0.1 μM, 1.0 μM or 10 μM LB-100 compared to control.
Namalwa cells were treated with LB-100 dissolved in DMSO or MSG.

non-del(5q) MDS = assay: Additional studies of LB-100 efficacy in non-del(5q) MDS; assay type: in vivo
Protocol: as §1
An amount of LB-100 is administered to a subject afflicted with non-del(5q) MDS. […] An amount of LB-100 in combination with lenalidomide is administered to a subject afflicted with non-del(5q) MDS.

Namalwa cells [6] = assay: MTT assay, proliferation of Namalwa cells; assay type: cell-based; conditions: 72 hours, versus control (FIGS. 7B and 7C)
Protocol: as §2, §3

del(5q) patient BM MNCs = assay: Apoptosis in patient cells, del(5q); assay type: cell-based
Protocol: FIG. 6 is a bar graph showing percentage of primary BM MNCs from a Del(5q) patient undergoing apoptosis after treatment with 0.1 μM, 1.0 μM, or 10 μM lenalidomide (grey) or 0.1 μM, 1.0 μM, or 10 μM LB-100 (black), compared to a control.

del(5q) MDS [7] = assay: Additional studies of LB-100 efficacy in del(5q) MDS; assay type: in vivo
Protocol: as §1
An amount of LB-100 is administered to a subject afflicted with del(5q) MDS. […] An amount of LB-100 in combination with lenalidomide is administered to a subject afflicted with del(5q) MDS.

[8] = LB-100 in combination with lenalidomide

Chain of protein phosphatase 2A (P67775 whole entry): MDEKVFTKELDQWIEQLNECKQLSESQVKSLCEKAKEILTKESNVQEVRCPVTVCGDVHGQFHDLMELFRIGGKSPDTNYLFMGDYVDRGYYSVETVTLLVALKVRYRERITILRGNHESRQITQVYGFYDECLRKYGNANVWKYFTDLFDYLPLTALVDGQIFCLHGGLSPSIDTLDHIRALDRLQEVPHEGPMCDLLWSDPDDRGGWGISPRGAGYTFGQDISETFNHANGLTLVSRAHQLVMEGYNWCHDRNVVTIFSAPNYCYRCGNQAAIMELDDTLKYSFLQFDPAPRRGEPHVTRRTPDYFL

Nc1cccc2c1CN(C1CCC(=O)NC1=O)C2=O (stereo not drawn) [Lenalidomide, lenalidomide]
transfusion independence (TI), share of patients (non-del (5q) MDS): 26% | transfusion independence (TI), share of patients (del(5q) MDS [1]; lower risk MDS patients with del(5q)): 67% | median duration of response (del(5q) MDS [1]; patients with del5q MDS): 2.5 years

C=C1[C@@H](O)[C@@H]2O[C@]3(CC[C@H](/C=C/[C@@H](C)[C@@H]4CC(C)=C[C@@]5(O[C@H](C[C@@](C)(O)C(=O)O)CC[C@H]5O)O4)O3)CC[C@H]2O[C@@H]1[C@@H](O)C[C@H](C)[C@H]1O[C@@]2(CCCCO2)CC[C@H]1C [Okadaic acid, 9,10-Deepithio-9,10-didehydroacanthifolicin]
Selectivity over PP2B, PP2C and other phosphatases (in words) (protein phosphatase 2A): highly selective over PP2B, PP2C and a range of other phosphatases

CN1CCN(C(=O)C2C(C(=O)O)[C@H]3CC[C@@H]2O3)CC1 (stereo partly drawn) [LB100]
Apoptosis (in words) [2]: did not lead to apoptosis | Apoptosis (in words) (Namalwa cells [3]): led to apoptosis at 10 μM | Efficacy (in words) [4]: effective to treat the MDS | Proliferation (in words) (HL60 cells): significant decreased proliferation in comparison to treatment with lenalidomide | G1 arrest, dose dependence (in words) (Namalwa cells [5]; Table 2, FIG. 2): led to G1 arrest in a dose-dependent fashion | G1 arrest (in words) (Namalwa cells [5]; dissolved in DMSO or MSG (Table 1, FIG. 1)): led to G1 arrest at 1 and 10 μM in MSG and at 10 μM in DMSO | Efficacy (in words) (non-del(5q) MDS; LB-100 alone): effective to treat the non-del(5q) MDS | Efficacy (in words) (non-del(5q) MDS; [8]): effective to treat the non-del(5q) MDS | Proliferation (in words) (Namalwa cells [6]): significant decrease in proliferation in comparison to control | Apoptosis (in words) (del(5q) patient BM MNCs; 1 μM): mild increase in apoptosis | Cytotoxicity compared with lenalidomide (in words) (del(5q) patient BM MNCs; 10 μM): more cytotoxic than lenalidomide | Apoptosis (in words) (del(5q) patient BM MNCs; 0.1, 1.0, 10 μM (FIG. 6)): induced apoptosis in a dose dependent fashion | Efficacy (in words) (del(5q) MDS [7]; LB-100 alone): effective to treat the del(5q) MDS | Efficacy (in words) (del(5q) MDS [7]; [8]): effective to treat the del(5q) MDS
